Like-named read-outs stand apart in the source and are kept apart here.
What was measured:
[1] = molecular target: T1, TACE (catalytic domain of the recombinant TACE protein) (Homo sapiens, UniProt P78536); experiment: TACE FRET assay using TACE Cat; type: biochemical; settings: FRET, pro-TNF-α substrate peptide; read-out: TACE IC50
T1 construct: The catalytic domain of the recombinant TACE protein was expressed and purified; made in house
Outline: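 Recombinant TACE catalytic domain (1 ug/ml) pre-incubated 10 min at room temperature with inhibitor in 50 mM Tris-HCl pH 7.4, 25 mM NaCl, 4% glycerol, 0.005% Brij 35; Abz/Dpa pro-TNF-α peptide substrate added, fluorescence (Ex 320/Em 420) followed 10 min; IC50 from initial rates by Hill fit.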

[2] = molecular target: T2, recombinant human catalytic domain of MMP-1 (Homo sapiens, UniProt P03956); experiment: In-vitro fluorescence assay of MMP-1 activity; type: biochemical
T2 construct: The source of enzyme in the assay was the recombinant human catalytic domain of MMP-1
T2 sequence (P03956 100-269 limits assumed): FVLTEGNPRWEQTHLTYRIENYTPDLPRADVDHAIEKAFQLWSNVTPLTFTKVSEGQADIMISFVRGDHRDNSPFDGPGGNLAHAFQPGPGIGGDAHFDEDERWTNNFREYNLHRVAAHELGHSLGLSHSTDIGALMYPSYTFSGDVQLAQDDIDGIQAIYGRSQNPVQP

recombinant human MMP-2 = molecular target: T3, recombinant human MMP-2 (Homo sapiens, UniProt P08253); experiment: In-vitro fluorescence assay of MMP-2 activity; type: biochemical
T3 sequence (P08253 110-660): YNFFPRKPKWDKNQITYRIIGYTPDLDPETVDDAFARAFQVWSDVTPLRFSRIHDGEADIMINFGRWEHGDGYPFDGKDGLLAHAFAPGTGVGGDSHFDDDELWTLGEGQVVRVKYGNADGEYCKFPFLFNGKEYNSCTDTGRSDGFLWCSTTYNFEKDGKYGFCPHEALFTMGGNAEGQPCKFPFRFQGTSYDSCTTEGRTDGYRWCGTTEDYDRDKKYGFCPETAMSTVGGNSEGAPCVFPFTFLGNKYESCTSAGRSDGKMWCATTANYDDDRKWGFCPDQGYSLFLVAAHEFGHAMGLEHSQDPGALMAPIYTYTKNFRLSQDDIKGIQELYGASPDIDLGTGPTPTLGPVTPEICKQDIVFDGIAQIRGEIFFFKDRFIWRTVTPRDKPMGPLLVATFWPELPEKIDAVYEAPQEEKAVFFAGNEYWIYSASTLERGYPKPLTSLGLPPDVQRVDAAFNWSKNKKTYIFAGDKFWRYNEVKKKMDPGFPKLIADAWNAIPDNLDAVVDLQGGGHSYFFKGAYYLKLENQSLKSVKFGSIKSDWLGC

MMP-13 = MMP-13 (Homo sapiens, UniProt P45452); experiment: In-vitro fluorescence assay of MMP-13 activity; type: biochemical
Procedure: See Knight, C. […] […].
The method was essentially the same as for the determination of MMP-1 activity, described above, except that the final concentration of purified MMP in the assay was 0.5 nM, prepared by diluting with the assay buffer.

[3] = tested on: TNF-α secretion in Raw 264.7 cells; experiment: Cell-based assay for inhibition of TNF-α secretion in Raw cells; settings: Mus musculus, RAW264.7, LPS 100 ng/ml, 4 hr
Outline: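 Confluent Raw 264.7 cells were seeded overnight, refed, and pre-incubated 1 hr with compound (0.2% final DMSO), then stimulated with LPS at 100 ng/ml final for 4 hr at 37° C. Supernatant TNF-α measured by ELISA; % inhibition and IC50 by curve fitting.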

[4] = tested on: LPS-induced TNF-α secretion in human whole blood; experiment: Human whole blood assay for LPS-induced TNF-α secretion; type: cell-based; settings: LPS 100 ng/ml, read-out: TNF Secretion HWB IC50
Outline: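 Fresh blood from healthy volunteers pre-incubated 1 h at 37° C with compound (final DMSO <0.2%), then stimulated with 100 ng/ml LPS for 4 h or overnight at 37° C with rotation. Supernatant TNF-α measured by ELISA; percent inhibition and IC50 derived by curve fitting.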

[5] = molecular target: T4, recombinant human catalytic domain of MMP-14 (Homo sapiens, UniProt P50281); experiment: In-vitro fluorescence assay of MMP-14 activity; type: biochemical
T4 construct: 20 kDa; purchased Chemicon International, Inc. CC1041
Procedure: The results were analyzed as described for MMP-13 activity, above.

T1 sequence (P78536 223-474 limits assumed): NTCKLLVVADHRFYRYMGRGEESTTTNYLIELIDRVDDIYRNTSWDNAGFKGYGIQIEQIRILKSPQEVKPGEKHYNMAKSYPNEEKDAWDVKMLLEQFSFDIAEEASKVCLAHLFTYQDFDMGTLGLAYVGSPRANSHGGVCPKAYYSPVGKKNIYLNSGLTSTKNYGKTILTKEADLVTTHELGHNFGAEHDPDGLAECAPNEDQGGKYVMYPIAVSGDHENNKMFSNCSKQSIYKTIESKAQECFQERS

Row | Compound | IC50 [1] | IC50 [2] | IC50 (recombinant human MMP-2) | IC50 (MMP-13) | IC50 [3] | IC50 ([4]; Homo sapiens) | IC50 [5] | IC50 [4]
1 | Cc1cc(COc2ccc(S(=O)(=O)N(C)[C@@H]3[C@H]4CC[C@H](C4)[C@@H]3C(=O)NO)cc2)c2ccccc2n1 (racemic) [Example 1, exo-N-Hydroxy-3-[methyl({4-[(2-methylquinolin-4-yl)methoxy]phenyl}sulfonyl)amino]bicyclo[2.2.1]heptane-2-carboxamide] | 2 nM |  | 6180 nM |  | 18 nM | 3000 nM | > 16700 nM | 
2 | Cc1cc(COc2ccc(S(=O)(=O)N(C)C3C4CCC(C4)C3C(=O)NO)cc2)c2ccccc2n1 (single isomer, unassigned) [Example 1a, exo-N-hydroxy-3-[methyl({4-[(2-methylquinolin-4-yl)methoxy]phenyl}sulfonyl)amino]bicyclo[2.2.1]heptane-2-carboxamide] | 1.3 nM | > 16700 nM | 4580 nM | > 16700 nM |  |  | > 16700 nM | 2800 nM
3 | Cc1cc(COc2ccc(S(=O)(=O)N(C)C3C4CCC(C4)C3C(=O)NO)cc2)c2ccccc2n1 (single isomer, unassigned) [Example 1b, exo-N-hydroxy-3-[methyl({4-[(2-methylquinolin-4-yl)methoxy]phenyl}sulfonyl)amino]bicyclo[2.2.1]heptane-2-carboxamide] | 43 nM | > 16700 nM | > 16700 nM | > 16700 nM | 250 nM |  | > 16700 nM | 14000 nM
4 | CC[C@]1(C(=O)NO)CCC[C@H]1NS(=O)(=O)c1ccc(OCc2cc(C)nc3ccccc23)cc1 [Example 56, (1S,2R)-N-hydroxy-1-ethyl-2-[({4-[(2-methylquinolin-4-yl)methoxy]phenyl}sulfonyl)amino]cyclopentanecarboxamide] | 2.3 nM |  | > 10000 nM | > 10000 nM | > 1000 nM | 48000 nM |  | 
5 | CC[C@]1(C(=O)NO)CCC[C@H]1N(C)S(=O)(=O)c1ccc(OCc2cc(C)nc3ccccc23)cc1 [Example 57, (1S,2R)-N-hydroxy-1-ethyl-2-[methyl({4-[(2-methylquinolin-4-yl)methoxy]phenyl}sulfonyl)amino]cyclopentanecarboxamide] | 9.6 nM |  | > 10000 nM | > 10000 nM | > 1000 nM | > 50000 nM |  | 
6 | Cc1cc(COc2ccc(S(=O)(=O)N[C@@H]3CCNC[C@]3(O)C(=O)NO)cc2)c2ccccc2n1 [Example 59, (3R,4R)-N,3-dihydroxy-4-[({4-[(2-methylquinolin-4-yl)methoxy]phenyl}sulfonyl)amino]piperidine-3-carboxamide] | 109 nM |  | > 10000 nM | > 10000 nM | > 1000 nM | 49000 nM |  | 

Continued, values first:

Row | IC50 [1] | IC50 [2] | IC50 (recombinant human MMP-2) | IC50 (MMP-13) | IC50 [3] | IC50 ([4]; Homo sapiens) | IC50 [5] | IC50 [4] | Compound
7 | 1 nM | > 16700 nM | > 16700 nM | > 16700 nM | 21 nM | 500 nM |  |  | Cc1cc(COc2ccc(S(=O)(=O)N[C@@H]3CN(C=O)CCC3C(=O)NO)cc2)c2ccccc2n1 (mixture of isomers) [Example 34, 1-Formyl-3-[4-(2-methyl-quinolin-4-ylmethoxy)-benzenesulfonylamino]-piperidine-4-carboxylic acid hydroxyamide]
8 | 1.3 nM | > 16700 nM | > 16700 nM | > 16700 nM | 202 nM | 1000 nM |  |  | CC(=O)N1CCC(C(=O)NO)C(NS(=O)(=O)c2ccc(OCc3cc(C)nc4ccccc34)cc2)C1 (mixture of isomers) [Example 36, 1-Acetyl-3-[4-(2-methyl-quinolin-4-ylmethoxy)-benzenesulfonylamino]-piperidine-4-carboxylic acid hydroxyamide]
9 | 1.1 nM | > 16700 nM | 4120 nM | 3310 nM | 10 nM | 2200 nM | > 16700 nM |  | Cc1cc(COc2ccc(S(=O)(=O)N(C)[C@H]3[C@@H](C(=O)NO)[C@@H]4CC[C@H]3O4)cc2)c2ccccc2n1 (relative stereo) [Example 3, exo-N-Hydroxy-3-[methyl({4-[(2-methylquinolin-4-yl)methoxy]phenyl}sulfonyl)amino]-7-oxabicyclo[2.2.1]heptane-2-carboxamide]
10 | < 0.6 nM | > 16700 nM | > 16700 nM | 6380 nM | 18 nM | 1600 nM | > 16700 nM |  | Cc1cc(COc2ccc(S(=O)(=O)N[C@@H]3[C@H]4CC[C@H](C4)[C@@H]3C(=O)NO)cc2)c2ccccc2n1 (relative stereo) [Example 4, exo-N-Hydroxy-3-[({4-[(2-methylquinolin-4-yl)methoxy]phenyl}sulfonyl)amino]bicyclo[2.2.1]heptane-2-carboxamide]
11 | < 0.6 nM |  | > 16700 nM | > 16700 nM | 270 nM | 5900 nM |  |  | Cc1cc(COc2ccc(S(=O)(=O)N[C@@H]3CCC[C@]3(C)C(=O)NO)cc2)c2ccccc2n1 [Example 55, (1S,2R)-N-hydroxy-1-methyl-2-[({4-[(2-methylquinolin4-yl)methoxy]phenyl}sulfonyl)amino]cyclopentanecarboxamide]
